Measurements taken from the supplement of paper PMC10307832.

Assays:
Test in all cases: relative viability (nuclei count vs DMSO), 5 days (fraction); higher = more cells survive
BX 795 + Crizotinib = compound: O=C(NCCCNc1nc(Nc2cccc(NC(=O)N3CCCC3)c2)ncc1I)c1cccs1 [BX 795] + C[C@@H](Oc1cc(-c2cnn(C3CCNCC3)c2)cnc1N)c1c(Cl)ccc(F)c1Cl [Crizotinib] (partner 1 µM)
In short: (§1)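 Values are medians from duplicate plates. Each reflects relative viability, defined as the nuclei count of treated wells over that of vehicle wells. Lung cancer cell lines in 1536-well plates were pin-tool dosed one day after seeding with one drug alone or with a fixed anchor-drug dose plus five library-drug doses (not always all listed) in √10 steps, then fixed, stained and imaged at 4× after 5 days.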

BX 795 + Dasatinib = compound: O=C(NCCCNc1nc(Nc2cccc(NC(=O)N3CCCC3)c2)ncc1I)c1cccs1 [BX 795] + Cc1nc(Nc2ncc(C(=O)Nc3c(C)cccc3Cl)s2)cc(N2CCN(CCO)CC2)n1 [Dasatinib] (partner 0.075 µM)
In short: as §1

BX 795 + Alpelisib = compound: O=C(NCCCNc1nc(Nc2cccc(NC(=O)N3CCCC3)c2)ncc1I)c1cccs1 [BX 795] + Cc1nc(NC(=O)N2CCC[C@H]2C(N)=O)sc1-c1ccnc(C(C)(C)C(F)(F)F)c1 [Alpelisib] (partner 2 µM)
In short: as §1

BX 795 + AZD7762 = compound: O=C(NCCCNc1nc(Nc2cccc(NC(=O)N3CCCC3)c2)ncc1I)c1cccs1 [BX 795] + NC(=O)Nc1cc(-c2cccc(F)c2)sc1C(=O)N[C@H]1CCCNC1 [AZD7762] (partner 0.2 µM)
In short: as §1

BX 795 + Olaparib = compound: O=C(NCCCNc1nc(Nc2cccc(NC(=O)N3CCCC3)c2)ncc1I)c1cccs1 [BX 795] + O=C(c1cc(Cc2n[nH]c(=O)c3ccccc23)ccc1F)N1CCN(C(=O)C2CC2)CC1 [Olaparib] (partner 8 µM)
In short: as §1

| Cell Line | relative viability (BX 795 + Crizotinib; first compound 0.04 µM) | relative viability (BX 795 + Crizotinib; first compound 0.1265 µM) | relative viability (BX 795 + Crizotinib; first compound 0.4 µM) | relative viability (BX 795 + Crizotinib; first compound 1.265 µM) | relative viability (BX 795 + Dasatinib; first compound 0.04 µM) | relative viability (BX 795 + Dasatinib; first compound 0.1265 µM) | relative viability (BX 795 + Dasatinib; first compound 0.4 µM) | relative viability (BX 795 + Dasatinib; first compound 1.265 µM) | relative viability (BX 795 + Alpelisib; first compound 0.04 µM) | relative viability (BX 795 + Alpelisib; first compound 0.1265 µM) | relative viability (BX 795 + Alpelisib; first compound 0.4 µM) | relative viability (BX 795 + Alpelisib; first compound 1.265 µM) | relative viability (BX 795 + AZD7762; first compound 0.04 µM) | relative viability (BX 795 + AZD7762; first compound 0.1265 µM) | relative viability (BX 795 + AZD7762; first compound 0.4 µM) | relative viability (BX 795 + AZD7762; first compound 1.265 µM) | relative viability (BX 795 + Olaparib; first compound 0.04 µM) | relative viability (BX 795 + Olaparib; first compound 0.1265 µM) | relative viability (BX 795 + Olaparib; first compound 0.4 µM) | relative viability (BX 795 + Olaparib; first compound 1.265 µM) |
| --- | --- | --- | --- | --- | --- | --- | --- | --- | --- | --- | --- | --- | --- | --- | --- | --- | --- | --- | --- | --- |
| LOU-NH91 | 0.768 | 0.721 | 0.715 | 0.796 | 0.63 | 0.662 | 0.583 | 0.564 | 0.695 | 0.666 | 0.621 | 0.741 | 0.757 | 0.765 | 0.71 | 0.722 | 0.9 | 0.918 | 0.754 | 0.902 |
| NCI-H1915 | 0.904 | 0.95 | 0.85 | 0.765 | 0.323 | 0.285 | 0.306 | 0.29 | 1.11 | 1.08 | 1.14 | 0.928 | 0.651 | 0.658 | 0.666 | 0.695 | 0.297 | 0.26 | 0.217 | 0.242 |
| NCI-H1666 | 1.16 | 1.05 | 1.13 | 0.769 | 0.847 | 0.851 | 0.736 | 0.569 | 1.07 | 1.11 | 1.01 | 0.799 | 0.895 | 0.784 | 0.838 | 0.832 | 0.939 | 0.707 | 0.938 | 0.726 |
| LCLC-97TM1 | 0.475 | 0.431 | 0.306 | 0.209 | 0.719 | 0.888 | 0.764 | 0.76 | 0.236 | 0.229 | 0.393 | 0.155 | 0.334 | 0.352 | 0.239 | 0.346 | 0.507 | 0.404 | 0.409 | 0.266 |
| HCC-827 | 0.935 | 0.923 | 0.892 | 0.712 | 0.334 | 0.375 | 0.307 | 0.414 | 1.02 | 0.975 | 1.02 | 0.924 | 0.206 | 0.224 | 0.211 | 0.221 | 0.448 | 0.621 | 0.525 | 0.639 |
| NCI-H647 | 1.08 | 1.17 | 0.955 | 0.242 | 0.19 | 0.196 | 0.151 | 0.0897 | 1.13 | 1.18 | 1.31 | 0.522 | 0.554 | 0.493 | 0.43 | 0.363 | 0.406 | 0.565 | 0.288 | 0.232 |
| NCI-H460 | 0.859 | 1.17 | 0.684 | 0.192 | 0.491 | 0.474 | 0.385 | 0.385 | 0.475 | 0.457 | 0.498 | 0.245 | 0.587 | 0.616 | 0.664 | 0.767 | 0.371 | 0.427 | 0.154 | 0.346 |
| NCI-H2087 | 0.745 | 0.963 | 0.868 | 0.516 | 0.895 | 0.814 | 0.79 | 0.619 | 1.08 | 1.18 | 1.29 | 0.752 | 1.26 | 1.33 | 1.32 | 1.13 | 0.833 | 0.761 | 0.781 | 0.448 |
| NCI-H1944 | 1.18 | 1.03 | 1.09 | 0.741 | 0.241 | 0.219 | 0.201 | 0.194 | 0.959 | 0.806 | 0.893 | 0.754 | 0.531 | 0.555 | 0.48 | 0.531 | 0.476 | 0.403 | 0.542 | 0.403 |
| NCI-H1355 | 1.03 | 0.937 | 1.1 | 0.961 | 0.763 | 0.659 | 0.684 | 0.664 | 0.833 | 0.808 | 0.914 | 0.781 | 0.784 | 0.607 | 0.734 | 0.69 | 0.827 | 0.663 | 0.806 | 0.571 |
| HOP-62 | 1.04 | 0.953 | 1.13 | 0.941 | 0.659 | 0.797 | 0.668 | 0.576 | 0.901 | 0.643 | 1.24 | 1 | 0.602 | 0.715 | 0.672 | 0.528 | 0.419 | 0.265 | 0.266 | 0.605 |
| PC-14 | 0.879 | 0.919 | 0.851 | 0.602 | 0.278 | 0.249 | 0.228 | 0.177 | 0.955 | 0.939 | 0.918 | 0.813 | 0.369 | 0.383 | 0.335 | 0.282 | 0.241 | 0.298 | 0.139 | 0.236 |
| NCI-H1792 | 1.01 | 1.08 | 1.09 | 0.892 | 0.792 | 0.764 | 0.821 | 0.664 | 0.705 | 0.904 | 0.706 | 0.572 | 0.616 |  | 0.696 | 0.576 | 0.401 |  | 0.302 | 0.422 |
| ABC-1 | 1.2 | 1.23 | 1.03 | 0.3 | 0.522 | 0.618 | 0.557 | 0.546 | 1.17 | 1.25 | 0.911 | 0.764 | 0.83 | 0.924 | 0.745 | 0.838 | 1.07 |  | 0.962 | 0.526 |
| BEN | 0.984 | 1.02 | 0.787 | 0.821 | 0.334 | 0.315 | 0.367 | 0.299 | 1.06 | 1.16 | 1.06 | 0.995 | 0.659 | 0.653 | 0.587 | 0.647 | 1.19 | 1.34 | 0.797 | 1.04 |
| NCI-H23 | 0.459 | 0.503 | 0.374 | 0.257 | 0.871 | 0.8 | 0.507 | 0.884 | 0.659 | 0.737 | 0.743 | 0.526 | 0.38 | 0.231 | 0.237 | 0.345 | 0.335 | 0.308 | 0.247 | 0.225 |
